Where two headings read alike, the source gives them in different places.
Assays:
[1] = tested on: blood stream T. brucei strain 427; assay: Cultured bloodstream T. brucei growth/viability, parasites counted with a haemocytometer; type: cell-based, Trypanosoma brucei; conditions: for concentration at which all parasites were killed / no parasites survived: blood stream T. brucei strain 427, 37° C. for 40 hours
Experimental: Cultured trypanosomes (seeded at 10^4/ml) in 100 μl of a 96-well plate received varying amounts of Tyrphostin A47 (Sigma). Parasites were counted with a haemocytometer after 48 hours in culture. Data are means of triplicate determinations, they are representative of three independent trials. Blood stream form of T. brucei were used for these studies since that stage of the parasite causes disease in humans. Inhibitory concentration 50 (IC50) is the drug concentration which reduces the growth rate by 50%. Minimum inhibitory concentration (MIC) is the lowest concentration which killed all the parasites.
T. brucei strain 427 was cultured axenically and seeded at 10^4 cells/ml in 200 μl of medium a 96-well plate. Tyrphostin AG1478 (Sigma) (Zhu et al., 2001, Cancer Lett; 169:27-32; Shushan et al., 2004, Hum Reprod; 19:1957-1967) was added to the stated final concentrations, cells were incubated at 37° C. for 40 hours, and parasites were counted with a haemocytometer. Data are mean values representative of two independent trials each of which was performed in triplicate. T. brucei replicates every 8-10 hours.
The 4-anilinoquinazoline canertinib (also referred to as C1-1033) is an inhibitor of EGFR kinase (Dewji, 2004, J Chemotherapy; 16(Suppl 4):44-48; Hamid, 2004, J Am Pharm Assoc; 44:52-58). To test the trypanocidal activity of canertinib, culture of blood stream T. brucei strain 427 was initiated in 24-well plates at 10^4 cells/ml (in 500 μl of medium (Hirumi and Hirumi, 1991, Parasitology; 102(Pt 2):225-236)). Canertinib (Heymach et al., 2006, Clin Cancer Res; 12:4441s) (provided by Pfizer) was added to the stated final concentrations, and cells were incubated at 37° C. for 40 hours. Control cells received an equal volume of solvent (DMSO). Parasites were counted with a haemocytometer. Data plotted are mean values of quadruplicate determinations from one of three independent trials that produced similar results.
This example also determined that erlotinib (TARCEVA), a 4-anilinoquinazoline tyrosine kinase inhibitor is trypanocidal. erlotinib (TARCEVA), like canertinib, is an inhibitor of EGFR kinase (Bulgaru et al., 2003, Expert Rev Anticancer Ther; 3(3):269-79; Akita and Sliwkowski, 2003, Semin Oncol; 30(3 Suppl 7):15-24). The culture of blood stream T. brucei strain 427 was initiated in 24-well plates at 10^4 cells/ml in 500 μl of medium (Hirumi and Hirumi, 1991, Parasitology; 102 Pt 2:225-236). Erlotinib (TARCEVA) (provided by Genentech/OSI), was added to the stated final concentrations shown in FIG. 4, and cells were incubated at 37° C. for 40 hours.
This example presents data showing sunitinib and axitinib (both provided by Pfizer) are trypanocidal. Sunitinib (also known as SU11248 and marketed under the trade name SUTENT) inhibits VEGFR, PDGF, and c-Kit kinases (reviewed in Steeghs et al., 2007, Ann Surg Oncol; 14(2):942-53) and is approved by the Food and Drug Administration for treatment of renal cell carcinoma. […] Therefore, this example tests whether sunitinib (SUTENT) compromised T. brucei viability. To blood stream form T. brucei 427 (seeded at 10^4 cells/ml in 500 μl of medium) sunitinib (SUTENT) (Abrams et al., 2003, Mol Cancer Ther; 2:471-478; Mendel et al., 2003, Clin Cancer Res; 9:327-337) was added to the stated final concentrations and cells were incubated at 37° C. for 40 hours. Parasites were counted with a haemocytometer. Data plotted are mean values of quadruplicate determinations from a representative experiment.

[2] = cited from earlier work
[3] = Trypanosoma brucei, blood stream T. brucei strain 427 seeded at 10^4 cells/ml, 37° C. for 40 hours, read-out: IC50

Question: For COc1cc2ncnc(Nc3cccc(Cl)c3)c2cc1OC [Tyrphostin AG1478], which IC50 ([1]; blood stream T. brucei strain 427 seeded at 10^4 cells/ml, 37° C. for 40 hours, read-out: IC50) is on record?
Answer: 2500 to 5000 nM

Question: What does the source list for C=CC(=O)Nc1cc2c(Nc3ccc(F)c(Cl)c3)ncnc2cc1OCCCN1CCOCC1 [canertinib, N-[−4-[(3-chloro-4-fluorophenyl)amino]-7-[3-(4-morpholinyl)propoxy]-6-quinazolinyl]-2-propenamide]?
Answer: IC50 [1, 3]: 1000 nM; concentration at which all parasites were killed / no parasites survived [1]: Above 4 μM

Question: For N#C/C(=C\c1ccc(O)c(O)c1)C(N)=S [Tyrphostin A47], which IC50 ([1]; blood stream form T. brucei seeded at 10^4/ml, 96-well plate, counted after 48 hours, read-out: IC50 (drug concentration which reduces the growth rate by 50%)) is on record?
Answer: 1000 to 5000 nM

Question: For C#Cc1cccc(Nc2ncnc3cc(OCCOC)c(OCCOC)cc23)c1 [erlotinib, N-(3-ethynylphenyl)-6,7-bis(2-methoxyethoxy)quinazolin-4-amine], which plasma concentration ([2]; human patients receiving a cycle of 150 mg/day) is on record?
Answer: 60 µM

Question: What about the plasma concentration ([2]; single dose) of the same compound?
Answer: 2 µM

Question: What about the IC50 [1, 3] of the same compound?
Answer: ~1700 nM

Question: What about the “concentration at which all parasites were killed / no parasites survived” value [1] of the same compound?
Answer: 10 µM

Question: For CCN(CC)CCNC(=O)c1c(C)[nH]c(/C=C2\C(=O)Nc3ccc(F)cc32)c1C [SUTENT, N-[2-(diethylamino)ethyl]-5-[(Z)-(5-fluoro-1,2-dihydro-2-oxo-3H-indol-3-ylidine)methyl]-2,4-dimethyl-1H-pyrrole-3-carboxamide], which “trypanocidal effect on T. brucei (in words)” value ([1]; blood stream form T. brucei 427, 37° C. for 40 hours) is on record?
Answer: kills T. brucei at low micromolar levels

— patent US9545410B2, “Tyrosine kinase inhibitors as anti-kinetoplastid agents” (UNIVERSITY OF GEORGIA RESEARCH FOUNDATION, INC., priority 2006, dated 2017)
